Data reported in patent US20260297042A1, “BIARYLAMIDE DERIVATIVES AND THEIR USE AS PKMYT1 INHIBITORS” (CANCER RESEARCH TECHNOLOGY LIMITED, priority 2023, published 2026).

How the values were obtained:
Human PKMYT1 = target: T1, Human PKMYT1 (Homo sapiens, UniProt Q99640); experiment: PKMYT1 biochemical ADP-Glo enzymatic assay; settings: ADP-Glo
T1 construct: Human PKMYT1 75-362 was cloned as a TEV cleavable 6xHis fusion; 6xHis (TEV cleavable) (cleaved yes); made in house; host or cells: bacterial cells
T1 sequence (Q99640 75-362): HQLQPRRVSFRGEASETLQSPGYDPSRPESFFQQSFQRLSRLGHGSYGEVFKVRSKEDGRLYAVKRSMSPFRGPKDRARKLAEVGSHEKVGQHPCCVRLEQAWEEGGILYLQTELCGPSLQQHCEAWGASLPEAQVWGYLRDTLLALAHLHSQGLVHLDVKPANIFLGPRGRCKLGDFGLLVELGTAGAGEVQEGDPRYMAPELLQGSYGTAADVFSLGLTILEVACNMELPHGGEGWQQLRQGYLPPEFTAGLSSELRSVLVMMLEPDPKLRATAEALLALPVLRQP
In short: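 Compounds were titrated over 10 points (3-fold steps), then 15 nM purified PKMYT1 kinase domain (aa 75-362) and 500 µM ATP were added in pH 7.5 HEPES buffer. After 60 min at 26 °C, remaining ATP was depleted and ADP converted to luminescence for IC50 fitting.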

KYSE-30 cells = experiment: Cancer cell line proliferation assay, ATP-based cell viability (Cell Titre Glow), KYSE-30 (normal CCNE1); settings: Homo sapiens, KYSE-30 cells (normal CCNE1), concentration that achieves 50% cell growth proliferation inhibition, read-out: KYSE30 Gl50
In short: (§1)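 Cells were treated with PKMYT1 inhibitors, then proliferation was assessed with CellTiter-Glo and luminescence read. GI50 values were fitted from the resulting data.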

[1] = target: T2, Cellular PKMYT1 Biomarker CDK1 pT14 (Homo sapiens, UniProt Q99640); experiment: Inhibition of cellular PKMYT1 biomarker CDK1 pT14 in OVCAR 3 cells (immunoblot); assay type: cell-based; settings: 20 hours incubation
T2 construct: read-out CDK1 phospho-T14 immunoblot
T2 sequence (Q99640 1-499): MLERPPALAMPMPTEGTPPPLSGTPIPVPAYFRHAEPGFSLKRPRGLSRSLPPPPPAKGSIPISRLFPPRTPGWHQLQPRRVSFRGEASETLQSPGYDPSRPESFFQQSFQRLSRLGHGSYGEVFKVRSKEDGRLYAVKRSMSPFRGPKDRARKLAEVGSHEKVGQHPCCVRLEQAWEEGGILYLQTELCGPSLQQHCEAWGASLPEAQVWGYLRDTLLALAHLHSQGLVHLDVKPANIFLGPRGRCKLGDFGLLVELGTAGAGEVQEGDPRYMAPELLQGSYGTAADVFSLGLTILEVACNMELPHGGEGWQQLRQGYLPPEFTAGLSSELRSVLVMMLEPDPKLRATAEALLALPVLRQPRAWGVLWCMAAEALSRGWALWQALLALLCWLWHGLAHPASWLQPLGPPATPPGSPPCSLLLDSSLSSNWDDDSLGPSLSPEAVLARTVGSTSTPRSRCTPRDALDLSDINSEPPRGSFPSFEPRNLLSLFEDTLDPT
Method: To determine compound PKMYT1 IC50 in a cellular assay, OVCAR 3 cells were incubated at 37° C. in 5% CO2 atmosphere. The cells were maintained in RPMI medium supplemented with 20% foetal bovine serum, 1X non essential amino acids, 1 mM sodium pyruvate, Glutamax and insulin. Cells were seeded into 12-well plates at low density (50,000-200,000 cells per well), grown to confluence (~350-400,000 cells per well) and then treated with a range of concentrations of PKMYT1 inhibitors. The cells were incubated 20 hours and then harvested into 1X Laemmli Sample Buffer (BIORAD) without 2-mercaptoethanol, heated to 95° C. for 5 min, centrifuged and sonicated using a microprobe for 15 sec, 21W to shear the DNA.
The samples were analysed by immunoblot on a Jess Automated Western Blot System (BioTechne). The samples were separated using the 12-230 kDa Separation Module (BioTechne,) and blotted using an anti-CDK1 phospho T14 antibody (Abcam, #ab58509) and an anti-vinculin antibody (Abcam, #126002). Specific binding was detected by fluorescence using the Anti-Rabbit Detection Module (BioTechne, #DM-001), quantified using Compass for Simple Western software, and IC50 values were calculated by regression analysis in GraphPad Prism.

OVCAR 3 cells = experiment: Cancer cell line proliferation assay, ATP-based cell viability (Cell Titre Glow), OVCAR 3 (CCNE1-amplified); settings: KYSE30 (normal CCNE1) GI50 vs. OVCAR 3 (CCNE1-amplified) GI50
In short: as §1

WEE1 = target: T3, WEE1 (Homo sapiens, UniProt P30291); experiment: Selectivity versus WEE1 assay (ADP-Glo enzymatic assay); assay type: biochemical; settings: for IC50: ADP-Glo; for PKMYT1 vs. WEE1 selectivity: fold difference in selectivity for PKMYT1 over WEE1
T3 construct: purchased Thermo Fisher PR7373A
T3 sequence (P30291 whole entry): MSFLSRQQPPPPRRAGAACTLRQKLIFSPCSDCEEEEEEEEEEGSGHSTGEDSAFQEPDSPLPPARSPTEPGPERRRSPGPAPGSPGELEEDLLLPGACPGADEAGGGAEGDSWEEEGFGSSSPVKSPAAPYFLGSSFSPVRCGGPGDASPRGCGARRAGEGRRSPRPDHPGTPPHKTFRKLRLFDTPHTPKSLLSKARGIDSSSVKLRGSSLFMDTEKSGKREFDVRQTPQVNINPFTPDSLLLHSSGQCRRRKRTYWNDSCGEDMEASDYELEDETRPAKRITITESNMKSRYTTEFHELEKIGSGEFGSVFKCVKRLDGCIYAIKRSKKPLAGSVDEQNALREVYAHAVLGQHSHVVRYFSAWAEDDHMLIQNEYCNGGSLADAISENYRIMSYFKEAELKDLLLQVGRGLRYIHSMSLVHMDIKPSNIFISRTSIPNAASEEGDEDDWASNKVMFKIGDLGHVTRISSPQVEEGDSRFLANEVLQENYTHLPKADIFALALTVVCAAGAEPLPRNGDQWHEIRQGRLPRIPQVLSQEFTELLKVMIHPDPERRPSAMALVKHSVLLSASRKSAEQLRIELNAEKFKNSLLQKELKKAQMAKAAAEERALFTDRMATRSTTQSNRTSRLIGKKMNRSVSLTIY
In short: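 Compounds were pre-dispensed, enzyme (15 nM final) was added in pH 7.5 HEPES buffer, and ATP ([…]) then started a 60 min incubation at 26° C. Afterwards ADP-Glo reagents were added in turn and luminescence was measured to derive IC50 values.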

[2] = PKMYT1 kinase domain 15 nM, banded values
[3] = 15 nM PKMYT1 kinase domain, 500 µM ATP, 60 minutes at 26° C., banded
[4] = 15 nM WEE1, 60 minutes at 26° C., banded
[5] = banded, ">N" = at least in this band but could be higher

Row | Compound | IC50 (Human PKMYT1; [2]) | GI50 (KYSE-30 cells) | IC50 [1] | Selectivity ratio KYSE30 Gl50 vs. OVCAR3 Gl50 (OVCAR 3 cells) | IC50 (WEE1; WEE1 15 nM, banded values) | PKMYT1 vs. WEE1 selectivity (WEE1; banded) | IC50 (Human PKMYT1; [3]) | IC50 (WEE1; [4]) | PKMYT1 vs. WEE1 selectivity (WEE1; [5])
1 | Cc1ccc(O)c(C)c1NC(=O)c1cnc(Nc2cccc(CC(=O)N(C3CC3)C3CC3)n2)s1 [BAA-427, 2-((6-(2-(Dicyclopropylamino)-2-oxoethyl)pyridin-2-yl)amino)-N-(3-hydroxy-2,6-dimethylphenyl)thiazole-5-carboxamide] | < 0.05 µM | > 5 µM | < 0.1 µM | Y (>20 fold) | > 11 µM | Z (>5000 fold) | – | – | –
2 | Cc1ccc(O)c(C)c1NC(=O)c1cnc(Nc2cccc(-c3cccnc3)n2)s1 [BAA-397, 2-([2,3′-bipyridin]-6-ylamino)-N-(3-hydroxy-2,6-dimethylphenyl)thiazole-5-carboxamide] | < 0.05 µM | 0.5 to 5 µM | < 0.1 µM | Y (>20 fold) | 1 to 11 µM | W (10-<100 fold) | – | – | –
3 | Cc1ccc(O)c(C)c1NC(=O)c1cnc(Nc2cc(C(F)(F)F)nc(N3CCOCC3)n2)s1 [BAA-326, N-(3-hydroxy-2,6-dimethylphenyl)-2-((2-morpholino-6-(trifluoromethyl)pyrimidin-4-yl)amino)thiazole-5-carboxamide] | – | 0.5 to 5 µM | < 0.1 µM | Y (>20 fold) | – | – | 0.05 to 1 µM | > 11 µM | X (100-<1000 fold)
4 | Cc1cc(Nc2ncc(C(=O)Nc3c(C)ccc(O)c3C)s2)nc(NCCC(C)(C)C)n1 [BAA-338, 2-((2-((3,3-Dimethylbutyl)amino)-6-methylpyrimidin-4-yl)amino)-N-(3-hydroxy-2,6-dimethylphenyl)thiazole-5-carboxamide] | – | < 0.5 µM | < 0.1 µM | Y (>20 fold) | – | – | < 0.05 µM | 1 to 11 µM | X (100-<1000 fold)
5 | Cc1cn(CC(=O)N(C)C2CC2)nc1Nc1ncc(C(=O)Nc2c(C)ccc(O)c2C)s1 [BAA-554, 2-((1-(2-(cyclopropyl(methyl)amino)-2-oxoethyl)-4-methyl-1H-pyrazol-3-yl)amino)-N-(3-hydroxy-2,6-dimethylphenyl)thiazole-5-carboxamide] | < 0.05 µM | > 5 µM | < 0.1 µM | Y (>20 fold) | 1 to 11 µM | X (100-<1000 fold) | – | – | –
6 | Cc1cn(CC#N)nc1Nc1ncc(C(=O)Nc2c(C)ccc(O)c2Br)s1 [BAA-584, N-(2-Bromo-3-hydroxy-6-methylphenyl)-2-((1-(cyanomethyl)-4-methyl-1H-pyrazol-3-yl)amino)thiazole-5-carboxamide] | < 0.05 µM | > 5 µM | 0.1 to 1 µM | Y (>20 fold) | 0.05 to 1 µM | W (10-<100 fold) | – | – | –
7 | Cc1cn(CC(=O)N2CCC2C)nc1Nc1ncc(C(=O)Nc2c(C)ccc(O)c2C)s1 (stereo not drawn) [BAA-598, N-(3-hydroxy-2,6-dimethylphenyl)-2-((4-methyl-1-(2-(2-methylazetidin-1-yl)-2-oxoethyl)-1H-pyrazol-3-yl)amino)thiazole-5-carboxamide] | < 0.05 µM | 0.5 to 5 µM | < 0.1 µM | Y (>20 fold) | 1 to 11 µM | X (100-<1000 fold) | – | – | –
8 | Cc1cn(CC(=O)N(C)C2CCC2)nc1Nc1ncc(C(=O)Nc2c(C)ccc(O)c2C)s1 [BAA-595, 2-((1-(2-(cyclobutyl(methyl)amino)-2-oxoethyl)-4-methyl-1H-pyrazol-3-yl)amino)-N-(3-hydroxy-2,6-dimethylphenyl)thiazole-5-carboxamide] | < 0.05 µM | > 5 µM | < 0.1 µM | Y (>20 fold) | 1 to 11 µM | X (100-<1000 fold) | – | – | –
9 | Cc1ccc(NC(=O)c2ccc(C(F)(F)F)cc2)nc1Nc1ncc(C(=O)Nc2c(C)ccc(O)c2C)s1 [BAA-328, N-(3-Hydroxy-2,6-dimethylphenyl)-2-((3-methyl-6-(4-(trifluoromethyl)benzamido)pyridin-2-yl)amino)thiazole-5-carboxamide] | – | > 5 µM | < 0.1 µM | Y (>20 fold) | – | – | 0.05 to 1 µM | > 11 µM | X (100-<1000 fold)
10 | Cc1ccc(O)c(C)c1NC(=O)c1cnc(Nc2nn(CC(F)F)cc2Br)s1 [BAA-587, 2-((4-bromo-1-(2,2-difluoroethyl)-1H-pyrazol-3-yl)amino)-N-(3-hydroxy-2,6-dimethylphenyl)thiazole-5-carboxamide] | < 0.05 µM | 0.5 to 5 µM | < 0.1 µM | Y (>20 fold) | 1 to 11 µM | X (100-<1000 fold) | – | – | –
11 | Cc1cn(C(CO)C(=O)N2CCCC2)nc1Nc1ncc(C(=O)Nc2c(C)ccc(O)c2C)s1 (stereo not drawn) [BAA-583, 2-((1-(3-Hydroxy-1-oxo-1-(pyrrolidin-1-yl)propan-2-yl)-4-methyl-1H-pyrazol-3-yl)amino)-N-(3-hydroxy-2,6-dimethylphenyl)thiazole-5-carboxamide] | < 0.05 µM | > 5 µM | < 0.1 µM | Y (>20 fold) | 1 to 11 µM | X (100-<1000 fold) | – | – | –
